Measured values reported in patent US10100057B2, “Imidazopyrimidine and imidazotriazine derivative, and pharmaceutical composition comprising the same” (SK BIOPHARMACEUTICALS CO., LTD., priority 2016, dated 2018).

Target: human mGluR5 receptor (Homo sapiens (Human), UniProt P41594)
Assay: Calcium influx assay based on fluorescence (mGluR5 positive allosteric modulator activity)
Settings: human mGluR5 receptor-overexpressed HEK293 cell line; L-glutamate EC20; Fluo-4, FLIPR; read-out: Human mGluR5 PAM EC50
Procedure: Efficacy as a positive allosteric modulator (PAM) of mGluR5 of the compounds of the Examples was tested as follows:
Calcium Influx Assay Based on Fluorescence
Ca^2+ (calcium) influx assay is an experiment for measuring the activity of a positive allosteric modulator of mGluR5 receptor in which human mGluR5 receptor-overexpressed HEK293 cell line is used. The day before the experiment, cells were prepared in a cell culture medium (DMEM, 5% FBS) with the density of 80,000/well, and 100 μl of cells were dispensed into each well of a poly-D-lysine-coated 96-well plate. Cells were incubated in a 5% CO2, 37° C. incubator. The next day, the cell culture medium was removed from the plate, and 100 μl of 1× Fluo-4 calcium indicator diluted with a buffer (1× Hank's balanced salt solution, 20 mM HEPES, 2.5 mM probenecid) were added to each well and incubated at 37° C. for 1 hour. The compound stock solutions were prepared in 100% DMSO, and the compounds were serially diluted with a 1/4 dilution to 6 or 7 concentrations (final concentration was 10 μM to 10 nM). The diluted compound solutions were added to the plate with 0.1 to 0.2% of final DMSO concentration. 1 hour after the addition of Fluo-4 calcium indicator, L-glutamate (EC20 concentration) and the test compound solutions were added to the plate, and Ca^2+ reaction was then measured by FLIPR at room temperature. The activity of the compounds was standardized on the basis of the results of maximum value-minimum value of fluorescent reaction, and the activity value was calculated on the basis that no activity on glutamate EC20 is 0% and the reaction to glutamate maximum value is 100%.

Sequence of human mGluR5 receptor (P41594 21-1212): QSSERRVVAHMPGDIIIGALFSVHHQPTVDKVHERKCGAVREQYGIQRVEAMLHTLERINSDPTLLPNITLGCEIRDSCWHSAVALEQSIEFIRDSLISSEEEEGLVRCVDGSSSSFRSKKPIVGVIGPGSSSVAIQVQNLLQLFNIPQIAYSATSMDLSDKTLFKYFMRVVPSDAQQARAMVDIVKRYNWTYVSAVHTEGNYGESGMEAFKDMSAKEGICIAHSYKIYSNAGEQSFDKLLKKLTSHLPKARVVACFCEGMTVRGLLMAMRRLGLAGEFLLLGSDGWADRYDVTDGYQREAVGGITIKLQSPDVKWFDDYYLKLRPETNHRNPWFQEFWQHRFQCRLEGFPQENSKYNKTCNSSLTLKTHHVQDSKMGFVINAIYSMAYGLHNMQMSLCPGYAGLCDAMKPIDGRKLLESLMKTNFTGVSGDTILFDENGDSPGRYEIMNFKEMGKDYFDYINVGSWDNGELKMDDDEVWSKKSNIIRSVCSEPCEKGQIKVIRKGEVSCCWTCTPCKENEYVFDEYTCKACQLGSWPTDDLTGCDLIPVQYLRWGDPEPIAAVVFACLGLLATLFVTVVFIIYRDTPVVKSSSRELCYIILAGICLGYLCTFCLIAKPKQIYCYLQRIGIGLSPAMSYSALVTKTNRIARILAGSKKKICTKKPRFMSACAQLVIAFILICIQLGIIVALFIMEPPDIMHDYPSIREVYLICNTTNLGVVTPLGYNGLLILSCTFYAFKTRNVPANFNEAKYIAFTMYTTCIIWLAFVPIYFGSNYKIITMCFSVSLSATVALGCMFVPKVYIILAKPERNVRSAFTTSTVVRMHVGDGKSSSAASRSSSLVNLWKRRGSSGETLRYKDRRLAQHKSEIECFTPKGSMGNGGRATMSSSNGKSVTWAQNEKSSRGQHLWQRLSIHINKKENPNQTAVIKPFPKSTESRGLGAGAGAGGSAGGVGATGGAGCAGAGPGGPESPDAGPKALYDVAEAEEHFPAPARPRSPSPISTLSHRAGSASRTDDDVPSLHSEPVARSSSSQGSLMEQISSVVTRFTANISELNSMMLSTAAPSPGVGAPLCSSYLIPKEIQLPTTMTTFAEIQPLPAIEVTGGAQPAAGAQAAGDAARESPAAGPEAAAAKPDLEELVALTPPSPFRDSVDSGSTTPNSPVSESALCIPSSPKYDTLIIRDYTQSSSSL

SMILES | EC50 [nM]
Fc1ccc(-c2cnc3nc(COc4ccccc4)cn3c2)c(F)c1 [Example 3, 6-(2,4-difluorophenyl)-2-phenoxymethylimidazo[1,2-a]pyrimidine] | ≤ 100
Cc1ccccc1-c1cnc2nc(COc3ccccc3)cn2c1 [Example 5, 6-(2-methylphenyl)-2-phenoxymethylimidazo[1,2-a]pyrimidine] | ≤ 100
Cc1cc(F)ccc1-c1cnc2nc(COc3ccccc3)cn2c1 [Example 6, 6-(4-fluoro-2-methylphenyl)-2-phenoxymethylimidazo[1,2-a]pyrimidine] | ≤ 100
OCc1cc(F)ccc1-c1cnc2nc(COc3ccccc3)cn2c1 [Example 25, 6-(4-fluoro-2-hydroxymethylphenyl)-2-phenoxymethylimidazo[1,2-a]pyrimidine] | ≤ 100
Fc1ccc(OCc2cn3cc(-c4ccc(F)cc4Cl)cnc3n2)cc1 [Example 67, 6-(2-chloro-4-fluoro-phenyl)-2-[(4-fluorophenoxy)methyl]imidazo[1,2-a]pyrimidine] | ≤ 100
Fc1cccc(OCc2cn3cc(-c4ccc(C(F)(F)F)nc4)cnc3n2)c1 [Example 80, 2-[(3-fluorophenoxy)methyl]-6-[6-(trifluoromethyl)-3-pyridyl)imidazo[1,2-a]pyrimidine] | ≤ 100
Cc1cc(-c2cnc3nc(COc4ccc(F)cc4)cn3c2)cnc1F [Example 91, 6-(6-fluoro-5-methyl-3-pyridyl)-2-[(4-fluorophenoxy)methyl]imidazo[1,2-a]pyrimidine] | ≤ 100

Other lines, results leading:

EC50 [nM] | SMILES
≤ 100 | Cc1cc(F)ccc1-c1cnc2nc(COc3cc(F)ccn3)cn2c1 [Example 116, 6-(4-fluoro-2-methyl-phenyl)-2-[(4-fluoro-2-pyridyl)oxymethyl)imidazo[1,2-a]pyrimidine]
≤ 100 | Fc1ccc(-c2cnc3nc(COc4ccccn4)cn3c2)nc1 [Example 132, 6-(5-fluoro-2-pyridyl)-2-(2-pyridyloxymethyl)imidazo[1,2-a]pyrimidine]
≤ 100 | Cc1cc(F)ccc1-c1cnc2nc(COc3ccnc(F)c3)cn2c1 [Example 162, 6-(4-fluoro-2-methylphenyl)-2-(2-fluoropyridin-4-yloxymethyl)imidazo[1,2-a]pyrimidine]
≤ 100 | Cc1ccccc1-c1cnc2nc(COc3ccnc(F)c3)cn2c1 [Example 168, 6-(2-methylphenyl)-2-(2-fluoropyridin-4-yloxymethyl)imidazo[1,2-a]pyrimidine]
≤ 100 | Cc1cc(F)ccc1-c1cnc2nc(COc3ccccn3)cn2n1 [Example 188, 2-(4-fluoro-2-methyl-phenyl)-6-(2-pyridyloxymethyl)imidazo[1,2-b][1,2,4]triazine]
≤ 100 | FCc1cc(F)ccc1-c1cnc2nc(COc3ccccn3)cn2c1 [Example 198, 6-[4-fluoro-2-(fluoromethyl)phenyl]-2-(2-pyridyloxymethyl)imidazo[1,2-a]pyrimidine]
